ChEMBL document CHEMBL4270528, “Design, synthesis, molecular modeling and anti-proliferative evaluation of novel quinoxaline derivatives as potential DNA intercalators and topoisomerase II inhibitors” (Eur J Med Chem, 2018)
The source made the active and inactive calls. The calls are words filed in the database; no cut-off is given here.

Legend:
HepG2 = experiment: Antiproliferative activity against human HepG2 cells after 48 hrs by neutral red assay; type: functional, cell-based; conditions: HepG2, 48 h
HEp-2 = experiment: Antiproliferative activity against human Hep2 cells after 48 hrs by neutral red assay; type: functional, cell-based; conditions: HEp-2, 48 h
Caco-2 [1] = experiment: Antiproliferative activity against human Caco2 cells after 48 hrs by neutral red assay; type: functional, cell-based; conditions: Caco-2, 48 h
[2] = target: T1, DNA topoisomerase 2-alpha (Homo sapiens, UniProt P11388); experiment: Inhibition of human topoisomerase 2 using supercoiled pHOT1 DNA as substrate after 30 mins by agarose gel electrophoresis
T1 sequence (P11388 whole entry): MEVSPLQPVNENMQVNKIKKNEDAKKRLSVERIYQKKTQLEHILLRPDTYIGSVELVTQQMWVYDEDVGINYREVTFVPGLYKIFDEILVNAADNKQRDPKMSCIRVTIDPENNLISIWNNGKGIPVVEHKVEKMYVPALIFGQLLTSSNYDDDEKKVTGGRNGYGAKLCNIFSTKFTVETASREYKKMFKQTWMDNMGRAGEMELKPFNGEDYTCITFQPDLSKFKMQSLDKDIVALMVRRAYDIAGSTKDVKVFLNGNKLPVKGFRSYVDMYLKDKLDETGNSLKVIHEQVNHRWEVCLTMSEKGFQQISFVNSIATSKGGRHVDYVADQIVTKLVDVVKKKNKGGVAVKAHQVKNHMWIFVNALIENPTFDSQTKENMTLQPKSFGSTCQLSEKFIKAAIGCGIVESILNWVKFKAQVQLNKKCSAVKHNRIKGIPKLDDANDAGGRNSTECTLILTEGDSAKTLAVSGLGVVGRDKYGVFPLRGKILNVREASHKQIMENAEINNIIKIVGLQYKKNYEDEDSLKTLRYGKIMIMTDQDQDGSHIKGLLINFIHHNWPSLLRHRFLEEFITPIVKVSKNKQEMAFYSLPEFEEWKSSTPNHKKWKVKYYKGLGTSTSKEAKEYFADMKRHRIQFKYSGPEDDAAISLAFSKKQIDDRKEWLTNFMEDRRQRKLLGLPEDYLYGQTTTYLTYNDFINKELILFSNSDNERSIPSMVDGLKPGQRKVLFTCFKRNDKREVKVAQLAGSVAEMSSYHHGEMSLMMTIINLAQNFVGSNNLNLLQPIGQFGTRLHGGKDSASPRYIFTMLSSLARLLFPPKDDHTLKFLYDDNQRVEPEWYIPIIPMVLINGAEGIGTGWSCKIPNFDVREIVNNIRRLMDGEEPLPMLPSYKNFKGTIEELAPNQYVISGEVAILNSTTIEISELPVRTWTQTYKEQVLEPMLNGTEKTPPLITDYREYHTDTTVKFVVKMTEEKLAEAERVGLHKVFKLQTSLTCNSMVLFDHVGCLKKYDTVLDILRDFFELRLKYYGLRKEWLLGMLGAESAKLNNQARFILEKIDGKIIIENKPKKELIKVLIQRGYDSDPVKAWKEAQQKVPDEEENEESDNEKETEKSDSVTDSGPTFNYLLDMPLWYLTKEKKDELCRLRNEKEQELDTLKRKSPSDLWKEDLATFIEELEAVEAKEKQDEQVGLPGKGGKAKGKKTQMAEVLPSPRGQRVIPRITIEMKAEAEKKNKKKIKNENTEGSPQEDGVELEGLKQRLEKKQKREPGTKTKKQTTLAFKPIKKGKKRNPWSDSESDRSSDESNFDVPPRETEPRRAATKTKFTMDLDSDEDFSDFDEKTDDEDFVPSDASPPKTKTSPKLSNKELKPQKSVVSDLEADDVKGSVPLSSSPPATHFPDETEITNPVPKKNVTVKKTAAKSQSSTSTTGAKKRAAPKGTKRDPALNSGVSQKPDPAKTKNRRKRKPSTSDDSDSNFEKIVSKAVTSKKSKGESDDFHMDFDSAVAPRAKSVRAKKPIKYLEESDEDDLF

Escherichia coli = experiment: Induction of Escherichia coli bacteriophage lambda DNA intercalation assessed as inhibition of Sal 1/EcoR 1-mediated DNA cleavage after 2 hrs by agarose gel electrophoresis
Calf thymus DNA = experiment: Inhibition of methyl green binding to calf thymus DNA incubated for 24 hrs in dark by spectrophotometric method; type: nucleic-acid assay, Bos taurus
[3] = target: T1, DNA topoisomerase 2-alpha; experiment: Inhibition of recombinant human topoisomerase 2 assessed as reduction in relaxation of supercoiled pBS-SK(+) DNA after 30 mins by agarose gel electrophoresis
[4] = target: T1, DNA topoisomerase 2-alpha; experiment: Inhibition of recombinant human topoisomerase 2 assessed as reduction in relaxation of supercoiled pBS-SK(+) DNA at 5 uM after 30 mins by agarose gel electrophoresis
[5] = target: T1, DNA topoisomerase 2-alpha; experiment: Inhibition of recombinant human topoisomerase 2 assessed as reduction in relaxation of supercoiled pBS-SK(+) DNA at 10 to 50 uM after 30 mins by agarose gel electrophoresis
Caco-2 [6] = experiment: Cell cycle arrest in human Caco2 cells assessed as accumulation at G0/G1 phase at 0.5 uM after 24 hrs by propidium iodide staining based flow cytometry (reference value: 53.85%); type: functional
Caco-2 [7] = experiment: Cell cycle arrest in human Caco2 cells assessed as accumulation at S phase at 0.5 uM after 24 hrs by propidium iodide staining based flow cytometry (reference value: 30.96%); type: functional
Caco-2 [8] = experiment: Cell cycle arrest in human Caco2 cells assessed as accumulation at G2/M phase at 0.5 uM after 24 hrs by propidium iodide staining based flow cytometry (reference value: 15.19%); type: functional
Caco-2 [9] = experiment: Induction of apoptosis in human Caco2 cells assessed as accumulation at pre-G1 phase at 0.5 uM after 24 hrs by Annexin V-FITC/propidium iodide staining based flow cytometry (reference value: 2.76%); type: functional
Caco-2 [10] = experiment: Induction of apoptosis in human Caco2 cells assessed as viable cells at 0.5 uM after 24 hrs by Annexin V-FITC/propidium iodide staining based flow cytometry (reference value: 96.65%); type: functional; conditions: Caco-2, 24 h, read-out: Activity
Caco-2 [11] = experiment: Induction of apoptosis in human Caco2 cells assessed as early apoptotic cells at 0.5 uM after 24 hrs by Annexin V-FITC/propidium iodide staining based flow cytometry (reference value: 0.48%); type: functional
Caco-2 [12] = experiment: Induction of apoptosis in human Caco2 cells assessed as late apoptotic cells at 0.5 uM after 24 hrs by Annexin V-FITC/propidium iodide staining based flow cytometry (reference value: 0.69%); type: functional
Caco-2 [13] = experiment: Induction of apoptosis in human Caco2 cells assessed as necrotic cells at 0.5 uM after 24 hrs by Annexin V-FITC/propidium iodide staining based flow cytometry (reference value: 1.59%); type: functional
Caco-2 [14] = experiment: Down regulation of Bax mRNA expression level in human Caco2 cells by qRT-PCR method; type: functional, cell-based
Caco-2 [15] = experiment: Down regulation of Bec1 mRNA expression level in human Caco2 cells by qRT-PCR method; type: functional, cell-based
Caco-2 [16] = experiment: Down regulation of Caspase 8 mRNA expression level in human Caco2 cells by qRT-PCR method; type: functional, cell-based
Caco-2 [17] = experiment: Upregulation of […] mRNA expression level in human Caco2 cells by qRT-PCR method; type: functional, cell-based
Caco-2 [18] = experiment: Down regulation of Cyclin B mRNA expression level in human Caco2 cells by qRT-PCR method; type: functional, cell-based
Caco-2 [19] = experiment: Down regulation of Bcl-2 mRNA expression level in human Caco2 cells by qRT-PCR method; type: functional, cell-based
[20] = target: T1, DNA topoisomerase 2-alpha; experiment: Inhibition of human topoisomerase 2 assessed as cleavage complex formation at 25 to 50 uM using pBS-SK(+) DNA as substrate after 60 mins by agarose gel electrophoresis
[21] = target: T1, DNA topoisomerase 2-alpha; experiment: Inhibition of recombinant human topoisomerase 2 assessed as reduction in relaxation of supercoiled pBS-SK(+) DNA at 10 uM after 30 mins by agarose gel electrophoresis
[22] = target: T1, DNA topoisomerase 2-alpha; experiment: Inhibition of human topoisomerase 2 assessed as cleavage complex formation at 10 uM using pBS-SK(+) DNA as substrate after 60 mins by agarose gel electrophoresis

IC50 (HepG2) [µM]	IC50 (Caco-2 [1]; read-out: IC50) [µM]	IC50 [2] [µM]	DNA intercalation activity (qualitative) (Escherichia coli)	IC50 (Calf thymus DNA) [µM]	Compound	IC50 (HEp-2) [µM]	also measured
5.8	14.8	–	–	–	CCOC(=O)CCCSc1nnc2c3nncn3c3ccccc3n12	> 50	–
0.83	2.25	1.94	Active	49.1	CCCCNc1nc2ccccc2n2cnnc12	0.01	–
2.28	0.97	1.22	–	28.4	O=C(NNc1nc2ccccc2n2cnnc12)NC1CCCCC1	0.32	–
22.7	> 50	–	–	–	CSc1nnc2c3nncn3c3ccccc3n12	5.79	–
0.5	0.39	0.85	Active	38.6	COc1cccc(NC(=O)CSc2nnc3c4nncn4c4ccccc4n23)c1	0.29	inhibition [3]: Dose-dependent effect; inhibition [4]: inactive; inhibition [5]: Active; Activity (Caco-2 [6]): 44.23%; Activity (Caco-2 [7]): 15.19%; Activity (Caco-2 [8]): 40.58%; Activity (Caco-2 [9]): 13.99%; viability at 0.5 µM (Caco-2 [10]): 84.5%; Activity (Caco-2 [11]): 3.91%; Activity (Caco-2 [12]): 7.5%; Activity (Caco-2 [13]): 2.58%; Activity (Caco-2 [14]): Active; Activity (Caco-2 [15]): Active; Activity (Caco-2 [16]): Active; Activity (Caco-2 [17]): Active; Activity (Caco-2 [18]): Active; Activity (Caco-2 [19]): Active; inhibition [20]: inactive
0.64	1.29	2.98	Active	34.3	S=C(NNc1nc2ccccc2n2cnnc12)Nc1ccccc1	0.1	–
9.9	6.41	–	–	–	CCOc1nc2ccccc2n2cnnc12	4.21	–
0.88	1.48	2.09	Active	48.6	CNc1nc2ccccc2n2cnnc12	3.17	–
0.06	5.7	2.97	Active	40.1	Clc1cccc(Cl)c1/C=N/Nc1nc2ccccc2n2cnnc12	0.52	–
9.89	1.15	1.91	Active	52.3	Clc1ccccc1/C=N/Nc1nc2ccccc2n2cnnc12	0.12	–
0.71	1.44	1.19	–	31.3	O=C(NNc1nc2ccccc2n2cnnc12)Nc1ccccc1	0.56	–
0.56	0.57	1.06	Active	29.9	Sc1nnc2c3nncn3c3ccccc3n12	0.77	–
8.05	8.15	–	–	–	COc1nc2ccccc2n2cnnc12	3.95	–
0.76	0.8	0.94	Active	43.4	O=C(CSc1nnc2c3nncn3c3ccccc3n12)Nc1ccc(F)cc1	0.5	–
1.08	3	–	–	–	CCCNc1nc2ccccc2n2cnnc12	2.33	–
–	–	–	–	–	COc1cc(NS(C)(=O)=O)ccc1Nc1c2ccccc2nc2ccccc12	–	inhibition [21]: Active; inhibition [22]: Active
2.97	4.51	–	–	–	c1ccc(CNc2nc3ccccc3n3cnnc23)cc1	40.5	–
> 50	10.5	–	–	–	c1ccc(CSc2nnc3c4nncn4c4ccccc4n23)cc1	5.36	–
9.39	6.33	–	–	–	COC(=O)CSc1nnc2c3nncn3c3ccccc3n12	3.11	–
0.63	0.46	0.68	Active	39.4	c1ccc2c(c1)nc(NC1CCCCC1)c1nncn12	0.92	–
1.9	3.46	5.38	–	–	CCNC(=S)NNc1nc2ccccc2n2cnnc12	2.37	–
3.18	2.66	–	–	–	OCCNc1nc2ccccc2n2cnnc12	0.14	–
2.44	3.76	–	–	–	COc1ccccc1/C=N/Nc1nc2ccccc2n2cnnc12	2.21	–
0.81	1.42	2.12	–	62.6	CCOC(=O)CSc1nnc2c3nncn3c3ccccc3n12	0.36	–

Compound	IC50 (HepG2) [µM]	IC50 (Caco-2 [1]; read-out: IC50) [µM]	IC50 [2] [µM]	DNA intercalation activity (qualitative) (Escherichia coli)	IC50 (Calf thymus DNA) [µM]	IC50 (HEp-2) [µM]	also measured
COc1cccc2c1C(=O)c1c(O)c3c(c(O)c1C2=O)C[C@@](O)(C(=O)CO)C[C@@H]3O[C@H]1C[C@H](N)[C@H](O)[C@H](C)O1 [DOXORUBICIN]	0.62	–	0.88	Active	30.2	0.51	IC50 (Caco-2 [1]): 0.73 µM
